Measurements published in ChEMBL document CHEMBL1759983, “Design and SAR of macrocyclic Hsp90 inhibitors with increased metabolic stability and potent cell-proliferation activity” (Bioorg Med Chem Lett, 2011).
≈ marks a conversion by molar mass, not a printed value.

How the values were obtained:
[1] = Aqueous solubility of the compound; type: physicochemical
HCT-116 = assay: Antiproliferative activity against human HCT116 cells measured on day 4 by Cell titer-glo assay; type: functional, cell-based
[2] = target: Heat shock protein HSP 90-alpha (Homo sapiens, UniProt P07900)
Description: Inhibition of Hsp90alpha after 3 hrs by fluorescence polarization assay

in vitro = conditions: rat, liver microsomes

**Q.** With Cc1c2c(n3c1CCCNC[C@H](C)Nc1cc-3ccc1C(N)=O)CC(C)(C)CC2=O as the compound, how does the solubility [1] read?
**A.** > 100 µg/mL

**Q.** With Cc1c2c(n3c1CCNCCCNc1cc-3ccc1C(N)=O)CC(C)(C)CC2=O as the compound, how does the EC50 (HCT-116; Homo sapiens, HCT-116, 96 h) read?
**A.** 8140 nM

**Q.** What about the IC50 [2] of the same compound?
**A.** 400 nM

**Q.** With Cc1c2c(n3c1CCNCCNc1cc-3ccc1C(N)=O)CC(C)(C)CC2=O as the compound, how does the solubility [1] read?
**A.** > 100 µg/mL

**Q.** And the IC50 [2]?
**A.** 12400 nM

**Q.** And the half-life (in vitro)?
**A.** 15 min

**Q.** What does the source list for Cc1c2c(n3c1CCCNCC(C)(C)CNc1cc-3ccc1C(N)=O)CC(C)(C)CC2=O?
**A.** EC50 (HCT-116; hct-116): 210 nM; solubility [1]: 6 µg/mL (≈ 13.7 µM); IC50 [2]: 290 nM; half-life (in vitro): 3 min

**Q.** What does the source list for Cc1c2c(n3c1CCCNC(C)(C)CNc1cc-3ccc1C(N)=O)CC(C)(C)CC2=O?
**A.** EC50 (HCT-116; hct-116): 80 nM; solubility [1]: 52 µg/mL (≈ 123 µM); IC50 [2]: 140 nM; half-life (in vitro): 15 min

**Q.** With Cc1c2c(n3c1CCCNCCNc1cc-3ccc1C(N)=O)CC(C)(C)CC2=O as the compound, how does the EC50 (HCT-116; Homo sapiens, HCT-116, 96 h) read?
**A.** 820 nM

**Q.** What about the solubility [1] of the same compound?
**A.** 35 µg/mL (≈ 88.7 µM)

**Q.** What about the IC50 [2] of the same compound?
**A.** 920 nM

**Q.** And the half-life (in vitro)?
**A.** > 30 min

**Q.** For Cc1c2c(n3c1CCNCC[C@H](C)Nc1cc-3ccc1C(N)=O)CC(C)(C)CC2=O, which solubility [1] is on record?
**A.** 67 µg/mL (≈ 164 µM)

**Q.** Which results are given for Cc1c2c(n3c1CCCNCC(C)(C)Nc1cc-3ccc1C(N)=O)CC(C)(C)CC2=O?
**A.** EC50 (HCT-116; Homo sapiens, HCT-116, 96 h): 620 nM; solubility [1]: 45 µg/mL (≈ 106 µM); IC50 [2]: 830 nM; half-life (in vitro): > 30 min

**Q.** Which EC50 (HCT-116; Homo sapiens, HCT-116, 96 h) does the source give for Cc1c2c(n3c1CCNCC(C)CNc1cc-3ccc1C(N)=O)CC(C)(C)CC2=O (stereo not drawn) here?
**A.** 250 nM

**Q.** And the solubility [1]?
**A.** 39 µg/mL (≈ 95.5 µM)

**Q.** And the IC50 [2]?
**A.** 360 nM

**Q.** And the half-life (in vitro)?
**A.** 5 min

**Q.** For Cc1c2c(n3c1CCNCC(O)CNc1cc-3ccc1C(N)=O)CC(C)(C)CC2=O (stereo not drawn), which EC50 (HCT-116; Homo sapiens, HCT-116, 96 h) is on record?
**A.** 600 nM

**Q.** What about the solubility [1] of the same compound?
**A.** 70 µg/mL (≈ 171 µM)

**Q.** What about the IC50 [2] of the same compound?
**A.** 320 nM

**Q.** And the half-life (in vitro)?
**A.** 10 min

**Q.** With Cc1c2c(n3c1CCNCCOCCNc1cc-3ccc1C(N)=O)CC(C)(C)CC2=O as the compound, how does the EC50 (HCT-116; Homo sapiens, HCT-116, 96 h) read?
**A.** 830 nM

**Q.** What about the solubility [1] of the same compound?
**A.** 73 µg/mL (≈ 172 µM)

**Q.** And the IC50 [2]?
**A.** 570 nM

**Q.** And the half-life (in vitro)?
**A.** 28 min

**Q.** With Cc1c2c(n3c1CNCCCCNc1cc-3ccc1C(N)=O)CC(C)(C)CC2=O as the compound, how does the EC50 (HCT-116; Homo sapiens, HCT-116, 96 h) read?
**A.** > 5000 nM

**Q.** What about the solubility [1] of the same compound?
**A.** 18 µg/mL (≈ 45.6 µM)

**Q.** And the IC50 [2]?
**A.** > 5000 nM

**Q.** And the half-life (in vitro)?
**A.** 18 min

**Q.** What does the source list for Cc1c2c(n3c1CNCCC[C@H](C)Nc1cc-3ccc1C(N)=O)CC(C)(C)CC2=O?
**A.** EC50 (HCT-116; Homo sapiens, HCT-116, 96 h): > 5000 nM; solubility [1]: 16 µg/mL (≈ 39.2 µM); IC50 [2]: > 5000 nM; half-life (in vitro): 7 min

**Q.** For Cc1c2c(n3c1CCC(C)NCCNc1cc-3ccc1C(N)=O)CC(C)(C)CC2=O (stereo not drawn), which EC50 (HCT-116; Homo sapiens, HCT-116, 96 h) is on record?
**A.** 940 nM

**Q.** What about the solubility [1] of the same compound?
**A.** 69 µg/mL (≈ 169 µM)

**Q.** And the IC50 [2]?
**A.** 1240 nM

**Q.** What about the half-life (in vitro) of the same compound?
**A.** 26 min

**Q.** What does the source list for Cc1c2c(n3c1CC[C@@H](C)N[C@H](C)CNc1cc-3ccc1C(N)=O)CC(C)(C)CC2=O?
**A.** EC50 (HCT-116; Homo sapiens, HCT-116, 96 h): 30 nM; solubility [1]: > 100 µg/mL; IC50 [2]: 90 nM; half-life (in vitro): 15 min

**Q.** What does the source list for Cc1c2c(n3c1CC[C@H](C)N[C@H](C)CNc1cc-3ccc1C(N)=O)CC(C)(C)CC2=O?
**A.** EC50 (HCT-116; Homo sapiens, HCT-116, 96 h): 360 nM; solubility [1]: 58 µg/mL (≈ 137 µM); IC50 [2]: 430 nM; half-life (in vitro): 7 min

**Q.** With Cc1c2c(n3c1CCCN(C)C[C@H](C)Nc1cc-3ccc1C(N)=O)CC(C)(C)CC2=O as the compound, how does the EC50 (HCT-116; hct-116) read?
**A.** 80 nM

**Q.** What about the solubility [1] of the same compound?
**A.** 31 µg/mL (≈ 73.4 µM)

**Q.** What about the IC50 [2] of the same compound?
**A.** 150 nM

**Q.** What about the half-life (in vitro) of the same compound?
**A.** 11 min

**Q.** For CC(=O)N1CCc2c(C)c3c(n2-c2ccc(C(N)=O)c(c2)N[C@@H](C)CC1)CC(C)(C)CC3=O, which EC50 (HCT-116; Homo sapiens, HCT-116, 96 h) is on record?
**A.** 150 nM

**Q.** What about the solubility [1] of the same compound?
**A.** 19 µg/mL (≈ 42.2 µM)

**Q.** What about the IC50 [2] of the same compound?
**A.** 110 nM

**Q.** What about the half-life (in vitro) of the same compound?
**A.** 9 min
